Reference: article PMC9009886, “In vitro and in vivo Anti-leishmanial Potential of [Ag (PTA) 4 ]BF 4 and [Ag(HBPz 3 )(PPh 3 )] Silver Complexes” (Revista da Sociedade Brasileira de Medicina Tropical, 2022)
≈ marks a conversion by molar mass, not a printed value. Read-outs that look alike come from different tables or passages of the source.

Columns and labels:
[1] = test system: amastigote forms of L. (V.) guyanensis in murine peritoneal macrophages; experiment: Assay with amastigote forms of L. (V.) guyanensis in peritoneal macrophages; assay type: cell-based, Leishmania (Viannia) guyanensis
Protocol: (§1) The assay against amastigote forms was performed using murine peritoneal macrophages and human monocytes, obtained as described for the cytotoxicity assay. The cells were incubated for 48 h in a 24 well-plate containing glass coverslips with the RPMI medium, and cell volume adjusted to 10[5] macrophages/monocyte/mL.
(§2) The adhered cells were infected with promastigote forms of Leishmania spp. and left for 2 h. The test substances were then added at the concentrations used in previous trials and exposed for 24, 48, and 72 h. Coverslips were stained using a Panoptic kit (Laborclin® - Laborclin Products for Laboratories Ltd, Pinhais, Brazil) and quantified using optical microscopy at 400 × magnification. A total of 100 cells were quantified to evaluate the number of infected and uninfected macrophages and internalized amastigotes. Three independent assays were performed on peritoneal macrophages and human monocytes.
(§3) The SI is the relationship between the cytotoxic activity of the tested compound and its anti-leishmanial activity. In our study, the SI was calculated from the ratio of cytotoxicity for macrophages/monocytes with a cytotoxic concentration at 50% (CC50) and action against amastigote forms in each of these cell types with an inhibitory concentration at 50% (IC50), using the equation: SI = CC50IC50-AMA^3
(§4) Statistical analysis was performed using linear regression to calculate IC50 using GraphPad Prism® (GraphPad Software Inc. version 6.0, for Windows). Results are expressed as mean ± standard deviation.

[2] = test system: lesions caused by L. (L.) amazonensis; experiment: Topical treatment of lesions in hamsters infected with L. (L.) amazonensis; assay type: in vivo, Mesocricetus auratus; details: for Infected cells / internalized amastigotes in lesion fragments: after 30 days of treatment; for Lesion volume (in words): gel topically 0.3 mg/day once a day, Glucantime IM 3 mg (Sb5)/kg/day, 30 days, Ag2 effect after the 14th day
Protocol: (§5) To prepare the Carbopol®-based gel, Nipagin® was mixed with distilled water until its total solubilization, and then Carpobol® was added. Then, the metal complex was added and incorporated separately in each gel, and triethonolamine was added gradually until a thick gel was obtained. Finally, the metal complexes were mixed at a concentration of 3 mg/L, a value defined for comparative purposes with the positive control of the study (Glucantime®) administered at the same concentration via the intramuscular (IM) route.
(§6) For the assays, 72 adult male aged 60-days golden hamsters (Mesocricetus auratus) that were free of pathogens and had been previously obtained from the Central Vivarium at the INPA (CEUA 060/2018) were used [Appendix C]. The animals were housed in stainless steel cages in air-conditioned rooms, with controlled light, temperature (22-25 °C), humidity (50-60%), and food and water ad libitum.
(§7) Animals were separated into six groups. Five groups were infected with 100 µL of a solution containing 10[6] promastigote/mL of Leishmania spp. The first experiment involved 36 animals infected with L. (L.) amazonensis, and the second experiment involved 36 animals infected with L. (V.) guyanensis. Animals were divided into the following groups:
• Group I: Uninfected control • Group II: Untreated, infected control • Group III: Infected and treated with Glucantime® (IM) • Group IV: Infected and treated with Ag1 (lesions treated topically once a day) • Group V: Infected and treated with Ag2 (lesions treated topically once a day) • Group VI: Infected and treated with gel without the addition of complexes (lesions treated topically once a day)
To evaluate the course of infection, the total volume of the lesion (length, width, and height) was measured using a caliper (Zaas® Precision). Animals were weighed once per week. After 30 days of treatment, the animals were euthanized using ketamine hydrochloride (Dopalen®) combined with xylazine hydrochloride (Anasedan®) following the Animal Use Ethics Commission (CEUA) protocols (060/2018).
(§8) For parasitological studies, a sample of the tissue from the lesion region lesion in each animal was sectioned, and the fragment was printed on a glass slide and stained using the Panoptic kit (Laborclin®). The slides were evaluated using optical microscopy, 30 fields were counted, and the analysis and quantification of infected and uninfected cells and the quantity of internalized amastigote forms were performed. Fragments of each animal’s skin lesions and liver were also sectioned and cultured in an NNN medium for 7 days. After this period, an aliquot containing the fragments was evaluated using optical microscopy for parasitological analysis.
For the in vivo results, we used two-way analysis of variance to evaluate the statistical significance between the groups, followed by the Tukey test to compare the means of the groups at a 95% confidence interval.

[3] = test system: amastigote forms of L. (L.) amazonensis in human monocytes; experiment: Assay with amastigote forms of L. (L.) amazonensis in human monocytes; assay type: cell-based, Leishmania (Leishmania) amazonensis
Protocol: as §1, §2, §4

[4] = test system: amastigote forms of L. (V.) guyanensis in human monocytes; experiment: Assay with amastigote forms of L. (V.) guyanensis in human monocytes; assay type: cell-based, Leishmania (Viannia) guyanensis
Protocol: as §1, §2, §4

[5] = test system: murine peritoneal macrophages; experiment: Cytotoxicity (MTT) in murine peritoneal macrophages; assay type: cell-based, Balb/c (Mus musculus) mice; details: for CC50: peritoneal macrophages, MTT
Protocol: Peritoneal macrophages were extracted from Balb/c (Mus musculus) mice, from colonies of the Central Vivarium at the INPA, with the approval of the Ethics Committee on the Use of Animals (CEUA - INPA 023/2020; Appendix A). The animals were anesthetized with ketamine hydrochloride (Dopalen®), and a ventral incision was made. The RPMI medium was introduced; and the abdominal massage was performed for macrophage activation, followed by aspiration, and centrifuged at 1,500 g for 10 min. Cell concentration was adjusted to 10[4] macrophages/mL[6].
(§9) The assay was performed in 96-well plates (KASVI®). The RPMI medium was added to the cells at a concentration of 10[4] cells/mL/well. The metal complexes were added at concentrations of […] in triplicate as […], and Glucantime® was used at the same concentration as the metal complexes. The negative controls used DMSO at 4 concentrations (2%, 1%, 0.50%, and 0.25%), and the RMPI medium containing the cells remained exposed to the substance for up to 24, 48, and 72 h.
(§10) After each period, a solution of [3-(4,5-dimethylthiazol-2yl) -2,5-diphenyltetrazolium] bromide (MTT) was added to the wells at (concentration of 0.5 mg/mL). The plates were incubated for 4 h at 37 °C and then subjected to spectrophotometry (Biotek®) at an absorbance of 590 nm. Three independent trials were performed with peritoneal macrophages and human monocytes.

[6] = test system: lesions caused by L. (V.) guyanensis; experiment: Topical treatment of lesions in hamsters infected with L. (V.) guyanensis; assay type: in vivo, Mesocricetus auratus
Protocol: as §5, §6
as §7, with “groups: […]” for “groups:”
To evaluate the course of infection, the total volume of the lesion (length, width, and height) was measured using a caliper (Zaas® Precision). […]
as §8, with “Fragments of each animal’s skin lesions and liver were also sectioned and cultured in an NNN medium for 7 days.” left out, “analysis. […]” for “analysis.”

[7] = test system: promastigote forms of Leishmania (Viannia) guyanensis (M4147); experiment: Assay with promastigote forms, L. (V.) guyanensis; assay type: cell-based
Protocol: (§11) We used the species L. (Leishmania) amazonensis [L. (L.) amazonensis] (MHOM/BR/2009/IM5584) and L. (Viannia) guyanensis [L. (V.) guyanensis] (MHOM/BR/1975/M4147), which had been cultivated in the biphasic medium Novy - MacNeal - Nicolle (NNN) and amplified in the RPMI liquid medium (Himedia®). The culture was centrifuged for 15 min at 4,400 g. Parasites were adjusted to a concentration of 10[4] parasites/mL.
(§12) The parasites were used at a concentration of 10[4] parasites/mL. The assay was performed in 96-well plates (KASVI®), and then the same procedure and concentrations of the substances were used in the cytotoxicity assay, with negative control and culture medium containing parasites. The activity of the complexes was evaluated at 24, 48, and 72 h intervals using a Neubauer chamber. In addition, cellular viability was evaluated using the assay. Three independent tests were conducted.
as §4

human monocytes = experiment: Cytotoxicity (MTT) in human monocytes; assay type: cell-based; details: for CC50: MTT
Protocol: Human monocytes were obtained after approval from the Research Ethics Committee (CEP-UFAM: 29406319.2.0000.5020) (Appendix B). Blood samples were collected from all patients. Phosphate-buffered saline (PBS) 1 x was added, and the blood/PBS was added gently on Ficoll-Histopaque (Sigma-Aldrich®) [density of 1077] and centrifuged for 30 min/200 g[7]. Peripheral blood mononuclear cells were collected, added PBS 1 x, and centrifuged for 3 min at 400 × g. The cell concentration was adjusted to 10[4] monocytes/mL[7].
as §9, §10

[8] = test system: promastigote forms of Leishmania (Leishmania) amazonensis (IM5584); experiment: Assay with promastigote forms, L. (L.) amazonensis; assay type: cell-based
Protocol: as §11, §12, §4

[9] = test system: amastigote forms of L. (L.) amazonensis internalized in murine peritoneal macrophages; experiment: Assay with amastigote forms of L. (L.) amazonensis in peritoneal macrophages; assay type: cell-based, Leishmania (Leishmania) amazonensis
Protocol: as §1, §2, §3, §4

mammalian TrxR = test system: mammalian TrxR; parameters: method as in PMID 33238608; details: purified enzyme and cell extracts; cited from earlier work
[10] = test system: large panel of cancer cell lines; parameters: method as in PMID 33238608; details: cited from earlier work
[11] = test system: amastigote of L. (L.) amazonensis; parameters: method as in doi:10.1016/j.poly.2014.05.004; details: cited from earlier work
[12] = L. (L.) amazonensis (IM5584), 24 h, read-out: IC50 values, promastigote forms
[13] = L. (L.) amazonensis (IM5584), 48 h, read-out: IC50 values, promastigote forms
[14] = L. (L.) amazonensis (IM5584), 72 h, read-out: IC50 values, promastigote forms

C1N2CN3CN1CP(C2)C3.C1N2CN3CN1CP(C2)C3.C1N2CN3CN1CP(C2)C3.C1N2CN3CN1CP(C2)C3.F[B-](F)(F)F.[Ag+] [Ag1, [Ag (PTA)4]BF4]
IC50 ([1]; 24 h): 90.51 ± 0.7 µM | IC50 ([1]; 48 h): 105.1 ± 0.42 µM | IC50 ([1]; 72 h): 116 ± 1.58 µM | Infected cells / internalized amastigotes in lesion fragments [2]: greater number of internalized amastigotes | Lesion volume (in words) [2]: evolution of lesions | IC50 ([3]; 24 h): 23.3 ± 1.04 µM | IC50 ([3]; 48 h): 69.04 ± 0.34 µM | IC50 ([3]; 72 h): 150.7 ± 0.91 µM | IC50 ([4]; 24 h): 109.2 ± 0.63 µM | IC50 ([4]; 48 h): 186.6 ± 0.57 µM | IC50 ([4]; 72 h): 270.3 ± 0.25 µM | Cytotoxicity (in words) [5]: toxic | Number of amastigotes internalized in lesion ([6]; compared to the treated groups): highest number | Number of infected cells in lesion fragments ([6]; statistical difference compared to Glucantime): largest number of infected cells | IC50 ([7]; 24 h): 75.14 ± 0.53 µM | IC50 ([7]; 48 h): 130 ± 2.94 µM | IC50 ([7]; 72 h): 228.9 ± 1.26 µM | Cytotoxicity (in words) (human monocytes): toxic | IC50 [8, 12]: < 10 µM | IC50 [8, 13]: 69.2 ± 3.03 µM | IC50 [8, 14]: 104 ± 1.47 µM | IC50 ([8]; L. (L.) amazonensis, read-out: Activity class according to IC50, promastigotes): < 10 µM | IC50 ([9]; 24 h): 6.09 ± 0.47 µM | IC50 ([9]; 48 h): 14.9 ± 0.41 µM | IC50 ([9]; 72 h): 23.8 ± 1.51 µM

[Ag+].c1ccc(P(c2ccccc2)c2ccccc2)cc1.c1cnn([BH-](n2cccn2)n2cccn2)c1 [Ag2, [Ag(HBPz3)(PPh3)]]
Infected cells / internalized amastigotes in lesion fragments [2]: statistically significant difference compared to the group without treatment | Mean difference in lesion volume versus Glucantime ([2]; after the 14th day of treatment, no statistical difference): 4.38 | Lesion volume (in words) [2]: reduction in lesion volume | Cytotoxicity (in words) ([5]; murine peritoneal macrophages): did not show cytotoxic activity | TrxR inhibition (in words) (mammalian TrxR): very strong inhibitor | Cytotoxic activity toward cancer cell lines (in words) [10]: remarkable cytotoxic activity | Cytotoxicity (in words) (human monocytes; human monocytes): did not show cytotoxic activity

C[C@@H]1[C@H](O)[C@@H](C)/C=C/C=C/C=C/C=C/C=C/C=C/C=C/[C@H](O[C@@H]2O[C@H](C)[C@@H](O)[C@H](N)[C@@H]2O)C[C@@H]2O[C@](O)(C[C@@H](O)C[C@@H](O)[C@H](O)CC[C@@H](O)C[C@@H](O)CC(=O)O[C@H]1C)C[C@H](O)[C@H]2C(=O)O [amphotericin B®, amphotericin B]
IC50 amastigote [11]: 1.20 µg/mL (≈ 1.3 µM)

meglumine antimoniate [Glucantime®, reference compound]
IC50 ([1]; 24 h): 48.2 ± 0.77 µM | IC50 ([1]; 48 h): 70.2 ± 1.62 µM | IC50 ([1]; 72 h): 101 ± 1.02 µM | Viable parasites in cultures of lesion fragments (NNN medium) [2]: Viable parasites were observed | Clinical cure ([2]; 30 days of treatment): no clinical cure was obtained | Lesion volume (in words) [2]: reduction in lesion volume | IC50 ([3]; 24 h): 294.6 ± 0.38 µM | IC50 ([3]; 48 h): 317.2 ± 1.75 µM | IC50 ([3]; 72 h): 391 ± 1.38 µM | IC50 ([4]; 24 h): 374.7 ± 0.64 µM | IC50 ([4]; 48 h): 372.6 ± 1.75 µM | IC50 ([4]; 72 h): 427.8 ± 1.32 µM | CC50 ([5]; 24 h): 179 ± 0.23 µM | CC50 ([5]; 48 h): 205.2 ± 1.25 µM | CC50 ([5]; 72 h): 212 ± 2.48 µM | Viable parasites in cultures of lesion fragments (NNN medium) [6]: presence of viable parasites | IC50 ([7]; 24 h): 286.6 ± 1.28 µM | IC50 ([7]; 48 h): 376.5 ± 2.74 µM | IC50 ([7]; 72 h): 453.7 ± 3.18 µM | CC50 (human monocytes; human monocytes, 24 h): 149 ± 1.52 µM | CC50 (human monocytes; human monocytes, 48 h): 255 ± 2.74 µM | CC50 (human monocytes; human monocytes, 72 h): 398.4 ± 1.18 µM | IC50 [8, 12]: 292.1 ± 2.4 µM | IC50 [8, 13]: 343.1 ± 2.37 µM | IC50 [8, 14]: 435.6 ± 3.03 µM | IC50 ([9]; 24 h): 57.1 ± 0.77 µM | IC50 ([9]; 48 h): 279.2 ± 1.95 µM | IC50 ([9]; 72 h): 318.7 ± 1.48 µM
